Experimental data taken from ChEMBL document CHEMBL1201862, “PubChem BioAssay data set” (2004).
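Grown in 96-well plates, cells were treated for 48 hours with each compound at five concentrations. Insufficient inhibition: endpoint recorded as highest concentration tested. Abbreviation: GI50, concentration required for 50% inhibition of growth.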 The source made the active and inactive calls. Rule as the data show it: active = GI50 up to about 1.1 µM and inactive = higher.

Assays:
Experiment in all cases: DTP human tumour cell line panel, 48 h
[1] = tested on: PC-3
[2] = tested on: MDA-N
[3] = tested on: SK-MEL-2
[4] = tested on: UACC-257
[5] = tested on: Malme-3M
[6] = tested on: NCI-H460
[7] = tested on: EKVX
[8] = tested on: HL-60
[9] = tested on: SNB-75
[10] = tested on: T47D
[11] = tested on: MCF7
[12] = tested on: DU-145
[13] = tested on: A498
[14] = tested on: NCI-H23
[15] = tested on: M14
[16] = tested on: LOX IMVI
[17] = tested on: HCC 2998
[18] = tested on: MDA-MB-231
[19] = tested on: COLO 205
[20] = tested on: OVCAR-5
[21] = tested on: K562
[22] = tested on: Hs-578T
[23] = tested on: SF-268
[24] = tested on: IGROV-1
[25] = tested on: RPMI-8226
[26] = tested on: SK-MEL-28
[27] = tested on: SW-620
[28] = tested on: MDA-MB-435
[29] = tested on: CAKI-1
[30] = tested on: U-251
[31] = tested on: 786-0
[32] = tested on: NCI/ADR-RES
[33] = tested on: SR
[34] = tested on: ACHN
[35] = tested on: CCRF-CEM
[36] = tested on: SF-295
[37] = tested on: NCI-H226
[38] = tested on: OVCAR-8
[39] = tested on: UACC-62
[40] = tested on: OVCAR-4
[41] = tested on: HCT-15
[42] = tested on: SNB-19
[43] = tested on: HT-29
[44] = tested on: SN12C
[45] = tested on: RXF 393
[46] = tested on: MOLT-4
[47] = tested on: HOP-62
[48] = tested on: OVCAR-3
[49] = tested on: A549
[50] = tested on: SK-OV-3
[51] = tested on: KM12
[52] = tested on: UO-31
[53] = tested on: SK-MEL-5
[54] = tested on: NCI-H522
[55] = tested on: HCT-116
[56] = tested on: SF-539
[57] = tested on: BT-549
[58] = tested on: HOP-92
[59] = tested on: TK-10

Structure (SMILES): Cc1ccc(NCCCN2CCN(CCCNc3ccc(C)c4sc5ccccc5c(=O)c34)CC2)c2c(=O)c3ccccc3sc12
- GI50 [1]: 21.4 µM (inactive)
- GI50 [2]: > 100 µM (inactive)
- GI50 [3]: 23.4 µM (inactive)
- GI50 [4]: > 100 µM (inactive)
- GI50 [5]: > 100 µM (inactive)
- GI50 [6]: > 100 µM (inactive)
- GI50 [7]: 86.3 µM (inactive)
- GI50 [8]: > 100 µM (inactive)
- GI50 [9]: 20.6 µM (inactive)
- GI50 [10]: 58.7 µM (inactive)
- GI50 [11]: > 100 µM (inactive)
- GI50 [12]: 71.6 µM (inactive)
- GI50 [13]: 82 µM (inactive)
- GI50 [14]: > 100 µM (inactive)
- GI50 [15]: > 100 µM (inactive)
- GI50 [16]: 98.4 µM (inactive)
- GI50 [17]: > 100 µM (inactive)
- GI50 [18]: > 100 µM (inactive)
- GI50 [19]: > 100 µM (inactive)
- GI50 [20]: > 100 µM (inactive)
- GI50 [21]: > 100 µM (inactive)
- GI50 [22]: 37.2 µM (inactive)
- GI50 [23]: 34.2 µM (inactive)
- GI50 [24]: > 100 µM (inactive)
- GI50 [25]: > 100 µM (inactive)
- GI50 [26]: 30.5 µM (inactive)
- GI50 [27]: > 100 µM (inactive)
- GI50 [28]: > 100 µM (inactive)
- GI50 [29]: > 100 µM (inactive)
- GI50 [30]: 67.6 µM (inactive)
- GI50 [31]: 95.5 µM (inactive)
- GI50 [32]: > 100 µM (inactive)
- GI50 [33]: > 100 µM (inactive)
- GI50 [34]: > 100 µM (inactive)
- GI50 [35]: > 100 µM (inactive)
- GI50 [36]: 55.6 µM (inactive)
- GI50 [37]: > 100 µM (inactive)
- GI50 [38]: > 100 µM (inactive)
- GI50 [39]: 68.7 µM (inactive)
- GI50 [40]: > 100 µM (inactive)
- GI50 [41]: > 100 µM
- GI50 [42]: > 100 µM (inactive)
- GI50 [43]: > 100 µM (inactive)
- GI50 [44]: > 100 µM (inactive)
- GI50 [45]: 39.4 µM (inactive)
- GI50 [46]: > 100 µM (inactive)
- GI50 [47]: > 100 µM (inactive)
- GI50 [48]: > 100 µM (inactive)
- GI50 [49]: > 100 µM (inactive)
- GI50 [50]: > 100 µM (inactive)
- GI50 [51]: > 100 µM (inactive)
- GI50 [52]: > 100 µM (inactive)
- GI50 [53]: > 100 µM (inactive)
- GI50 [54]: > 100 µM (inactive)
- GI50 [55]: > 100 µM (inactive)
- GI50 [56]: > 100 µM (inactive)

Structure (SMILES): COC(=O)Cc1c(-c2c(CC(=O)OC)c3ccccc3n2C2OC(COC(C)=O)C(OC(C)=O)C(OC(C)=O)C2OC(C)=O)[nH]c2ccccc12 (stereo unspecified)
- GI50 [1]: > 100 µM (inactive)
- GI50 [2]: > 100 µM (inactive)
- GI50 [3]: > 100 µM (inactive)
- GI50 [4]: > 100 µM (inactive)
- GI50 [5]: > 100 µM (inactive)
- GI50 [6]: > 100 µM (inactive)
- GI50 [7]: > 100 µM (inactive)
- GI50 [12]: > 100 µM (inactive)
- GI50 [13]: 52.4 µM (inactive)
- GI50 [57]: > 100 µM (inactive)
- GI50 [14]: > 100 µM (inactive)
- GI50 [58]: > 100 µM (inactive)
- GI50 [15]: > 100 µM (inactive)
- GI50 [17]: > 100 µM (inactive)
- GI50 [18]: 43.2 µM (inactive)
- GI50 [19]: > 100 µM (inactive)
- GI50 [20]: > 100 µM (inactive)
- GI50 [23]: > 100 µM (inactive)
- GI50 [24]: 74.6 µM (inactive)
- GI50 [25]: > 100 µM (inactive)
- GI50 [26]: > 100 µM (inactive)
- GI50 [27]: > 100 µM (inactive)
- GI50 [28]: > 100 µM (inactive)
- GI50 [29]: > 100 µM (inactive)
- GI50 [30]: > 100 µM (inactive)
- GI50 [33]: > 100 µM (inactive)
- GI50 [59]: > 100 µM (inactive)
- GI50 [35]: > 100 µM (inactive)
- GI50 [36]: 90.8 µM (inactive)
- GI50 [39]: > 100 µM (inactive)
- GI50 [40]: > 100 µM (inactive)
- GI50 [41]: > 100 µM
- GI50 [42]: > 100 µM (inactive)
- GI50 [43]: > 100 µM (inactive)
- GI50 [44]: > 100 µM (inactive)
- GI50 [46]: > 100 µM (inactive)
- GI50 [47]: > 100 µM (inactive)
- GI50 [48]: > 100 µM (inactive)
- GI50 [49]: > 100 µM (inactive)
- GI50 [50]: > 100 µM (inactive)
- GI50 [51]: 85.3 µM (inactive)
- GI50 [52]: > 100 µM (inactive)
- GI50 [53]: > 100 µM (inactive)
- GI50 [54]: 52 µM (inactive)
- GI50 [55]: > 100 µM (inactive)

Structure (SMILES): CS(=O)(=O)OCCN1CCC2(CC1)SSC1(CCN(CCOS(C)(=O)=O)CC1)S2
- GI50 [1]: 44.7 µM (inactive)
- GI50 [2]: 75.5 µM (inactive)
- GI50 [3]: > 100 µM (inactive)
- GI50 [4]: > 100 µM (inactive)
- GI50 [5]: 22.8 µM (inactive)
- GI50 [6]: 34.8 µM (inactive)
- GI50 [8]: 24.3 µM (inactive)
- GI50 [9]: 99.1 µM (inactive)
- GI50 [11]: 17.1 µM (inactive)
- GI50 [13]: 0.352 µM (active)
- GI50 [57]: 45.5 µM (inactive)
- GI50 [14]: 60 µM (inactive)
- GI50 [15]: > 100 µM (inactive)
- GI50 [16]: 19.8 µM (inactive)
- GI50 [18]: > 100 µM (inactive)
- GI50 [19]: 28.7 µM (inactive)
- GI50 [20]: 24 µM (inactive)
- GI50 [21]: 64.4 µM (inactive)
- GI50 [22]: 82.6 µM (inactive)
- GI50 [23]: 22.3 µM (inactive)
- GI50 [24]: 50.8 µM (inactive)
- GI50 [25]: 8.87 µM (inactive)
- GI50 [26]: > 100 µM (inactive)
- GI50 [27]: 42.3 µM (inactive)
- GI50 [28]: > 100 µM (inactive)
- GI50 [29]: 21.8 µM (inactive)
- GI50 [30]: 72.6 µM (inactive)
- GI50 [31]: 56.9 µM (inactive)
- GI50 [32]: > 100 µM (inactive)
- GI50 [33]: 14.1 µM (inactive)
- GI50 [59]: 15.7 µM (inactive)
- GI50 [34]: 33.5 µM (inactive)
- GI50 [36]: 45.4 µM (inactive)
- GI50 [38]: > 100 µM (inactive)
- GI50 [39]: 30.1 µM (inactive)
- GI50 [40]: 62.1 µM (inactive)
- GI50 [41]: > 100 µM
- GI50 [42]: 69.3 µM (inactive)
- GI50 [43]: 50.5 µM (inactive)
- GI50 [44]: 43 µM (inactive)
- GI50 [46]: 31.8 µM (inactive)
- GI50 [47]: > 100 µM (inactive)
- GI50 [48]: 29.2 µM (inactive)
- GI50 [49]: > 100 µM (inactive)
- GI50 [50]: 64.4 µM (inactive)
- GI50 [51]: > 100 µM (inactive)
- GI50 [52]: 45 µM (inactive)
- GI50 [53]: 16.1 µM (inactive)
- GI50 [55]: 53.2 µM (inactive)
- GI50 [56]: 27.7 µM (inactive)
